Measurements reported in paper PMC8329300, “X-ray crystallography reveals molecular recognition mechanism for sugar binding in a melibiose transporter MelB” (Communications Biology, 2021).
Where two headings read alike, the source gives them in different places.

Columns and labels:
[1] = biological target: T1, D59C MelBSt (Salmonella typhimurium, UniProt P30878, D59C); experiment: biochemical; format: binding
T1 construct: Cys scanning mutagenesis for the full-length MelBSt; His10 (C); made in house; host or cells: E. coli DW2
T1 sequence (P30878 whole entry D59C): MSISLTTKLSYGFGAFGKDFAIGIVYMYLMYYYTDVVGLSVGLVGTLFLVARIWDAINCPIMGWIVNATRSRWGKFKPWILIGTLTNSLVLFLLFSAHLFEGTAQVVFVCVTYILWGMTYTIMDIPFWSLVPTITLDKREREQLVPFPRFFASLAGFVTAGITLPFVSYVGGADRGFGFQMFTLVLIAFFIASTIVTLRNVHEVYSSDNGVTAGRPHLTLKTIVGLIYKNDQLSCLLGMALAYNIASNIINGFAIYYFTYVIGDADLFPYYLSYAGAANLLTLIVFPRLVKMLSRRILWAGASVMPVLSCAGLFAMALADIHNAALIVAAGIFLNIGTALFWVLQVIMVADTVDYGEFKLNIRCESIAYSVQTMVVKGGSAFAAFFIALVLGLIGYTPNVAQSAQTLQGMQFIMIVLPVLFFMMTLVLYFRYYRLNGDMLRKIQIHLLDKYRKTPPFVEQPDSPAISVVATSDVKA
Experimental: All ITC ligand-binding assays were performed with the TA Instruments (Nano-ITC device) at 25 °C. In a typical experiment, the titrand (MelBSt) in the ITC sample cell was titrated with the specified titrant (placed in the Syringe) by an incremental injection of 2-µL aliquots at an interval of 300 s at a constant stirring rate of 250 r.p.m. All samples were degassed using a TA Instruments Degassing Station (model 6326) for 15 min prior to the titration. Data processing was performed with the NanoAnalyze (version 3.6.0 software) provided with the ITC equipment. The normalized heat changes were subtracted from the heat of dilution elicited by last few injections, where no further binding occurred; the corrected heat changes were plotted against the molar ratio of titrant versus titrand. The values for association constant (Ka) value were determined by fitting the data with a one-site independent-binding model. At most cases, the binding stoichiometry (N) number was fixed to 1 since it is a known parameter, which can restrain the data fitting and achieve more accurate results. The dissociation constant Kd = 1/Ka.
Supplementary Figure 1. ITC measurements. ITC measurements were performed at 25 °C as described in Methods. (a) Binding thermography. For all tests, ligands and proteins are buffer- […]
(1 picture or pasted object on this page, not shown here) […]
matched. For melibiose binding measurements, a solution of 80 mM or 10 mM in the absence or presence of NaCl at 100 mM, was injected into the ITC sample cell containing the WT MelBSt at 80 μM without or with 100 mM NaCl, respectively. With the D59C mutant, […] was used. For α-NPG binding measurements, 0.5 mM or 0.4 mM solution was used to titrate the WT or D59C mutant at 50 μM in the absence or presence or 100 mM NaCl, respectively. For the Na+ or Li+ binding measurements, 5 mM or 2 mM solution was used to titrate WT MelBSt at 80 μM without or with 50 mM melibiose, respectively; 40 mM solutions was used to titrate the D59C mutant. (b) binding isotherm. Curve fit was carried out with a one-site independent-binding model included in the NanoAnalyze software (version 3.6.0).

[2] = biological target: T2, MelBSt D59A (Salmonella typhimurium, UniProt P30878, D59A); experiment: [3H]Melibiose transport time course with DW2 intact cells expressing MelBSt D59A; format: cell-based; details: 0.4 mM [3H]melibiose
T2 construct: Cys scanning mutagenesis for the full-length MelBSt; expressed in transfected cells; host or cells: E. coli DW2 (melA+, melB-, lacZ-Y-)
T2 sequence (P30878 whole entry D59A): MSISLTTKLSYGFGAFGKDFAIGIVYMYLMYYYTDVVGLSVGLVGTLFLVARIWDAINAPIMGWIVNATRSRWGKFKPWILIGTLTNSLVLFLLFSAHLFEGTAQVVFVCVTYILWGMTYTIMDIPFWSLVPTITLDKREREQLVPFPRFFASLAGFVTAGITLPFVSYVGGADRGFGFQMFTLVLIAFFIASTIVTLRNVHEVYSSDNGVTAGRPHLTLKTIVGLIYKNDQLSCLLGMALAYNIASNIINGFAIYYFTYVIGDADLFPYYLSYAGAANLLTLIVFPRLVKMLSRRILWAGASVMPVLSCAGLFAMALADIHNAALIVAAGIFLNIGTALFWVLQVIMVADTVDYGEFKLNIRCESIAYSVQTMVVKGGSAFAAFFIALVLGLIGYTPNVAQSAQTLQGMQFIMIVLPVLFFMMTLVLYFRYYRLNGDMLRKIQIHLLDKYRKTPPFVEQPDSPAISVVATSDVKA
Experimental: (§1) Fig. 1 Functional characterizations. a [^3H] Melibiose transport time course with intact cells. E. coli DW2 strain (melB^−, lacZ^−Y^−) expressed with the WT, D59C, or D59A MelBSt mutants were subjected to [^3H]melibiose active transport assay at 0.4 mM and 10 mCi/mmol in the presence of 20 mM or 100 mM NaCl or LiCl by a fast filtration method. Inset, melibiose fermentation assay. Transformants with DW2 strain were plated on MacConkey agar plates containing 30 mM melibiose as the sole carbohydrate source and pH sensor neutral red, and incubated at 37 °C for 16–18 h before imaging. Number of tests = 3, from different batch of cells or duplicate measurements from same batch of sample. b Ligand binding by Trp→dansyl galactoside (D^2G) FRET assay. Purified proteins at 1 μM concentration in 20 mM Tris-HCl, pH 7.5, 100 mM CholCl, 10% glycerol, and 0.03% UDM were subjected to steady-state fluorescence measurements as described in Methods. On the time-trace, 1.8 μL of 1 mM D^2G at 10 μM was added into 180 μL of protein solutions at 1-min point, followed by supplying 10 μL of 5 mM DDMB or 5 mM α-NPG to displace the bound D^2G. For testing Na^+ or Li^+ binding, they are added into the solution before displacement with the second sugar. The structure of DDMB or α-NPG is shown in a chair form, and the carbon positions are labeled. Glycosidic bonds are indicated by arrows. Both are α-galactosides containing a substituent at the anomeric carbon-1. The data were from duplicate measurements.
The overexpression of MelBSt was carried out in the E. coli DW2 strain (melA^+, melB^−, and lacZ^−Y^−) from a constitutive expression plasmid pK95ΔAH/MelBSt/CHis10[9],[28],[33]. The D59C or D59A mutant with Cys or Ala at the position 59, respectively, was constructed previously[9] or in this study by QuikChange Site-Directed Mutagenesis kit and confirmed by DNA sequencing analysis. E. coli DW2 cells containing a given plasmid were grown in Luria-Bertani (LB) broth (5 g yeast extract and 10 g tryptone per liter with 171 mM NaCl) with 100 mg/L of ampicillin in a 37 °C shaker. The overnight cultures were diluted by 5% with LB broth supplemented with 0.5% glycerol and 100 mg/L of ampicillin, and constitutive overexpression was obtained by shaking at 30 °C for another 5 h.
E. coli DW2 cells expressing MelBSt were washed with 100 mM KPi, pH 7.5, to remove Na^+ contamination as described previously. The cell pellets were resuspended with the assay buffer (100 mM KPi, pH 7.5, 10 mM MgSO4) and adjusted to A420 of 10 (∼0.7 mg protein/ml). Using a fast filtration, transport time course at 0.4 mM melibiose (at specific activity of 10 mCi/mmol) was carried out in the absence or presence of NaCl or LiCl at 20 mM or 100 mM, respectively, and intracellular melibiose was determined as described previously.

[3] = biological target: T1, D59C MelBSt; experiment: Melibiose fermentation on MacConkey agar (DW2 transformants); format: cell-based; details: 30 mM melibiose, 37 °C
Experimental: as §1, with “Both are α-galactosides containing a substituent at the anomeric carbon-1. The data were from duplicate measurements.” left out

O=[N+]([O-])c1ccc(OC2OC(CO)C(O)C(O)C2O)cc1 [α-NPG, 4-nitrophenyl-α-D-galactopyranoside]
Kd ([1]; Kd of substrate binding, α-NPG, Apo, ITC 25 °C): 0.0105 ± 0.00134 mM | Kd ([1]; Kd of substrate binding, α-NPG, Na+ (100 mM), ITC 25 °C): 0.01197 ± 9e-05 mM | increased affinity versus WT ([1]; apo D59C mutant): about 4 fold

OC[C@H]1O[C@H](OCC2O[C@@H](O)[C@H](O)[C@@H](O)[C@@H]2O)[C@H](O)[C@@H](O)[C@H]1O (stereo partly shown) [Melibiose]
Kd ([1]; Apo, ITC 25 °C, read-out: Kd of substrate binding, Melibiose): 4.66 ± 0.1 mM | Kd ([1]; Na+ (100 mM), ITC 25 °C, read-out: Kd of substrate binding, Melibiose): 4.96 ± 0.11 mM | Kd lower than that of WT ([1]; apo state, melibiose binding): 2 fold | Kd ([1]; read-out: Kd value for melibiose binding): 6 mM | Melibiose transport ([2]; H+, Time 0.17): 9.09 | Melibiose transport ([2]; H+, Time 0.50): 8.49 | Melibiose transport ([2]; H+, Time 1.00): 2.84 | Melibiose transport ([2]; H+, Time 2.00): 1.86 | Melibiose transport ([2]; H+, Time 5.00): 1.70 | Melibiose transport ([2]; H+, Time 10.00): 1.53 | Melibiose transport ([2]; H+, Time 30.00): 1.58 | Melibiose transport ([2]; Li+, 20 mM, Time 0.17): 0.82 | Melibiose transport ([2]; Li+, 20 mM, Time 0.50): 1.81 | Melibiose transport ([2]; Li+, 20 mM, Time 1.00): 0.66 | Melibiose transport ([2]; Li+, 20 mM, Time 2.00): 4.29 | Melibiose transport ([2]; Li+, 20 mM, Time 5.00): 3.59 | Melibiose transport ([2]; Li+, 20 mM, Time 10.00): 1.72 | Melibiose transport ([2]; Li+, 20 mM, Time 30.00): 4.17 | Melibiose transport ([2]; Na+, 20 mM, Time 0.17): 4.09 | Melibiose transport ([2]; Na+, 20 mM, Time 0.50): 2.70 | Melibiose transport ([2]; Na+, 20 mM, Time 1.00): 2.54 | Melibiose transport ([2]; Na+, 20 mM, Time 2.00): 5.43 | Melibiose transport ([2]; Na+, 20 mM, Time 5.00): 1.63 | Melibiose transport ([2]; Na+, 20 mM, Time 10.00): 1.16 | melibiose fermentation (colony colour) [3]: normal melibiose fermentation with red colonies
